{"source": "paper PMC5116409", "about": "(Nanomedicine : nanotechnology, biology, and medicine, 2016)", "key": {"[1]": {"molecular_target": "T1, HIV-1 reverse transcriptase Wild type (Human immunodeficiency virus type 1 group M subtype B, UniProt P03366)", "test": "DNA-dependent DNA polymerization by recombinant HIV-1 RT", "type": "biochemical", "conditions": "From DMSO stock solution"}, "[2]": {"molecular_target": "T2, HIV-1 reverse transcriptase L100I (Human immunodeficiency virus type 1 group M subtype B, UniProt P03366, L699I)", "test": "DNA-dependent DNA polymerization by recombinant HIV-1 RT", "type": "biochemical"}, "[3]": {"molecular_target": "T3, HIV-1 reverse transcriptase K103N (Human immunodeficiency virus type 1 group M subtype B, UniProt P03366, K702N)", "test": "DNA-dependent DNA polymerization by recombinant HIV-1 RT", "type": "biochemical"}, "[4]": {"molecular_target": "T4, HIV-1 reverse transcriptase V106A (Human immunodeficiency virus type 1 group M subtype B, UniProt P03366, V705A)", "test": "DNA-dependent DNA polymerization by recombinant HIV-1 RT", "type": "biochemical"}, "[5]": {"molecular_target": "T5, HIV-1 reverse transcriptase Y181C (Human immunodeficiency virus type 1 group M subtype B, UniProt P03366, Y780C)", "test": "DNA-dependent DNA polymerization by recombinant HIV-1 RT", "type": "biochemical"}, "[6]": {"molecular_target": "T6, HIV-1 reverse transcriptase G190A (Human immunodeficiency virus type 1 group M subtype B, UniProt P03366, G789A)", "test": "DNA-dependent DNA polymerization by recombinant HIV-1 RT", "type": "biochemical"}, "[7]": {"molecular_target": "T7, HIV-1 reverse transcriptase K103N+Y181C (Human immunodeficiency virus type 1 group M subtype B, UniProt P03366, K702N/Y780C)", "test": "DNA-dependent DNA polymerization by recombinant HIV-1 RT", "type": "biochemical", "conditions": "From DMSO stock solution"}, "[8]": {"test": "toxicity to cells, WST-1 test", "type": "cell-based", "conditions": "human"}, "[9]": {"molecular_target": "T1, HIV-1 reverse transcriptase Wild type", "test": "biochemical", "conditions": "RNA-dependent DNA polymerization, IC50, Wild type RT; From DMSO stock solution"}, "[10]": {"molecular_target": "T2, HIV-1 reverse transcriptase L100I", "test": "RNA-dependent DNA polymerization by recombinant HIV-1 RT", "type": "biochemical"}, "[11]": {"molecular_target": "T3, HIV-1 reverse transcriptase K103N", "test": "RNA-dependent DNA polymerization by recombinant HIV-1 RT", "type": "biochemical"}, "[12]": {"molecular_target": "T4, HIV-1 reverse transcriptase V106A", "test": "RNA-dependent DNA polymerization by recombinant HIV-1 RT", "type": "biochemical"}, "[13]": {"molecular_target": "T5, HIV-1 reverse transcriptase Y181C", "test": "RNA-dependent DNA polymerization by recombinant HIV-1 RT", "type": "biochemical"}, "[14]": {"molecular_target": "T6, HIV-1 reverse transcriptase G190A", "test": "RNA-dependent DNA polymerization by recombinant HIV-1 RT", "type": "biochemical"}, "[15]": {"molecular_target": "T7, HIV-1 reverse transcriptase K103N+Y181C", "test": "RNA-dependent DNA polymerization by recombinant HIV-1 RT", "type": "biochemical", "conditions": "From DMSO stock solution"}}, "data": [{"smiles": "O=C(c1cc(Cl)cc(Cl)c1)c1cc(Br)ccc1OCCn1ccc(=O)[nH]c1=O", "note": "[Z011, 1-(2-(4-bromo-2-(3,5-dichlorobenzoyl)phenoxy)ethyl)pyrimidine-2,4(1H,3H)-dione]", "values": [{"measurement": "IC50", "setting": "[1]", "value": "0.7 ± 0.1", "unit": "µM"}, {"measurement": "IC50", "setting": "[2]; Complex with HC-PGC (M5P21OL)", "value": "> 100", "unit": "µM"}, {"measurement": "IC50", "setting": "[2]; From DMSO stock solution", "value": "1.8 ± 0.6", "unit": "µM"}, {"measurement": "IC50", "setting": "[3]; Complex with HC-PGC (M5P21OL)", "value": "> 100", "unit": "µM"}, {"measurement": "IC50", "setting": "[3]; From DMSO stock solution", "value": "6 ± 1", "unit": "µM"}, {"measurement": "IC50", "setting": "[4]", "value": "> 100", "unit": "µM"}, {"measurement": "IC50", "setting": "[5]; Complex with HC-PGC (M5P21OL)", "value": "22 ± 5", "unit": "µM"}, {"measurement": "IC50", "setting": "[5]; From DMSO stock solution", "value": "1.4 ± 0.5", "unit": "µM"}, {"measurement": "IC50", "setting": "[6]; Complex with HC-PGC (M5P21OL)", "value": "2.6 ± 0.7", "unit": "µM"}, {"measurement": "IC50", "setting": "[6]; From DMSO stock solution", "value": "1.6 ± 0.3", "unit": "µM"}, {"measurement": "IC50", "setting": "[7]", "value": "10 ± 3", "unit": "µM"}, {"measurement": "CC50 at 4 h", "setting": "[8]", "value": "> 50", "unit": "µM"}]}, {"smiles": "Cc1cc(C)cc(C(=O)c2cc(C)ccc2OCCn2ccc(=O)[nH]c2=O)c1", "note": "[Z007, 1-(2-(2-(3,5-dimethylbenzoyl)-4-methylphenoxy)ethyl)pyrimidine-2,4(1H,3H)-dione]", "values": [{"measurement": "IC50", "setting": "[9]", "value": "50 ± 20", "unit": "µM"}, {"measurement": "IC50", "setting": "[10]; Complex with HC-PGC (M5P21OL)", "value": "> 100", "unit": "µM"}, {"measurement": "IC50", "setting": "[10]; From DMSO stock solution", "value": "100 ± 30", "unit": "µM"}, {"measurement": "IC50", "setting": "[11]; Complex with HC-PGC (M5P21OL)", "value": "> 100", "unit": "µM"}, {"measurement": "IC50", "setting": "[11]; From DMSO stock solution", "value": "> 100", "unit": "µM"}, {"measurement": "IC50", "setting": "[12]", "value": "> 100", "unit": "µM"}, {"measurement": "IC50", "setting": "[13]; Complex with HC-PGC (M5P21OL)", "value": "> 100", "unit": "µM"}, {"measurement": "IC50", "setting": "[13]; From DMSO stock solution", "value": "> 100", "unit": "µM"}, {"measurement": "IC50", "setting": "[14]; Complex with HC-PGC (M5P21OL)", "value": "> 100", "unit": "µM"}, {"measurement": "IC50", "setting": "[14]; From DMSO stock solution", "value": "> 100", "unit": "µM"}, {"measurement": "IC50", "setting": "[15]", "value": "> 100", "unit": "µM"}, {"measurement": "IC50", "setting": "[1]", "value": "40 ± 10", "unit": "µM"}, {"measurement": "IC50", "setting": "[2]; Complex with HC-PGC (M5P21OL)", "value": "> 100", "unit": "µM"}, {"measurement": "IC50", "setting": "[2]; From DMSO stock solution", "value": "> 100", "unit": "µM"}, {"measurement": "IC50", "setting": "[3]; Complex with HC-PGC (M5P21OL)", "value": "> 100", "unit": "µM"}, {"measurement": "IC50", "setting": "[3]; From DMSO stock solution", "value": "> 100", "unit": "µM"}, {"measurement": "IC50", "setting": "[4]", "value": "> 100", "unit": "µM"}, {"measurement": "IC50", "setting": "[5]; Complex with HC-PGC (M5P21OL)", "value": "> 100", "unit": "µM"}, {"measurement": "IC50", "setting": "[5]; From DMSO stock solution", "value": "> 100", "unit": "µM"}, {"measurement": "IC50", "setting": "[6]; Complex with HC-PGC (M5P21OL)", "value": "> 100", "unit": "µM"}, {"measurement": "IC50", "setting": "[6]; From DMSO stock solution", "value": "> 100", "unit": "µM"}, {"measurement": "IC50", "setting": "[7]", "value": "> 100", "unit": "µM"}, {"measurement": "CC50 at 4 h", "setting": "[8]", "value": "> 50", "unit": "µM"}]}, {"smiles": "Cc1cc(C)cc(C(=O)c2cc(Cl)ccc2OCCn2c3c(c(=O)[nH]c2=O)CCC3)c1", "note": "[Z107, 1-(2-(4-chloro-2-(3,5-dimethylbenzoyl)phenoxy)ethyl)-1,5,6,7-tetrahydro-2H-cyclopenta[d]pyrimidine-2,4(3H)-dione]", "values": [{"measurement": "IC50", "setting": "[9]", "value": "3 ± 1", "unit": "µM"}, {"measurement": "IC50", "setting": "[10]; Complex with HC-PGC (M5P21OL)", "value": "15 ± 4", "unit": "µM"}, {"measurement": "IC50", "setting": "[10]; From DMSO stock solution", "value": "10 ± 3", "unit": "µM"}, {"measurement": "IC50", "setting": "[11]; Complex with HC-PGC (M5P21OL)", "value": "100 ± 30", "unit": "µM"}, {"measurement": "IC50", "setting": "[11]; From DMSO stock solution", "value": "40 ± 10", "unit": "µM"}, {"measurement": "IC50", "setting": "[12]", "value": "> 100", "unit": "µM"}, {"measurement": "IC50", "setting": "[13]; Complex with HC-PGC (M5P21OL)", "value": "40 ± 10", "unit": "µM"}, {"measurement": "IC50", "setting": "[13]; From DMSO stock solution", "value": "5 ± 2", "unit": "µM"}, {"measurement": "IC50", "setting": "[14]; Complex with HC-PGC (M5P21OL)", "value": "70 ± 20", "unit": "µM"}, {"measurement": "IC50", "setting": "[14]; From DMSO stock solution", "value": "35 ± 10", "unit": "µM"}, {"measurement": "IC50", "setting": "[15]", "value": "80 ± 30", "unit": "µM"}, {"measurement": "IC50", "setting": "[1]", "value": "0.7 ± 0.2", "unit": "µM"}, {"measurement": "IC50", "setting": "[2]; Complex with HC-PGC (M5P21OL)", "value": "1.5 ± 0.2", "unit": "µM"}, {"measurement": "IC50", "setting": "[2]; From DMSO stock solution", "value": "3 ± 1", "unit": "µM"}, {"measurement": "IC50", "setting": "[3]; Complex with HC-PGC (M5P21OL)", "value": "95 ± 15", "unit": "µM"}, {"measurement": "IC50", "setting": "[3]; From DMSO stock solution", "value": "70 ± 2", "unit": "µM"}, {"measurement": "IC50", "setting": "[4]", "value": "> 100", "unit": "µM"}, {"measurement": "IC50", "setting": "[5]; Complex with HC-PGC (M5P21OL)", "value": "1.9 ± 0.5", "unit": "µM"}, {"measurement": "IC50", "setting": "[5]; From DMSO stock solution", "value": "6 ± 2", "unit": "µM"}, {"measurement": "IC50", "setting": "[6]; Complex with HC-PGC (M5P21OL)", "value": "0.9 ± 0.3", "unit": "µM"}, {"measurement": "IC50", "setting": "[6]; From DMSO stock solution", "value": "45 ± 15", "unit": "µM"}, {"measurement": "IC50", "setting": "[7]", "value": "50 ± 20", "unit": "µM"}, {"measurement": "CC50 at 4 h", "setting": "[8]", "value": "> 50", "unit": "µM"}]}]}
